≈ marks a conversion by molar mass, not a printed value. Residues, ends and D or L forms follow the SMILES beside them.

The source of these data is patent US10351613B2, “Polypeptide for inhibition of tumor” (G-Bio Pharma Tech Co., Ltd., priority 2015, dated 2019).

Assay [1] relates to Human Umbilical Vein Endothelial Cell (HUVEC). The format is cell-based. Conditions: for Cell Survival (%) at a polypeptide concentration of 120 μM: 6 h; for biological activity compared with P2: inhibition of HUVEC and HepG2. The procedure:
20 cm umbilical cord adjacent to fetus was taken, cleaned by washing, ligated at both ends, placed into 150 ml preservation solutions for umbilical cord, and stored in a 4° C. refrigerator for digestion for 6 hours. The umbilical cord was inspected to remove the damaged portion. The umbilical vein was thoroughly cleaned by washing and then 10 ml collagenase solution was injected. Then the umbilical vein was transferred to a 37° C. incubator for digestion for 15 minutes. The umbilical cord was removed and the digested solution was recovered. The digested solution was washed by PBS and centrifuged. After centrifugation, the cells were culture by re-suspension.
(§1) Inhibition of cell growth was detected by a MTT method, which is based on the principle that succinate dehydrogenase in the mitochondria of the live cells could reduce the exogenous MTT (3-(4,5-dimethyl-2-thiazolyl)-2,5-diphenyl-tetrazolium bromide) to a […] Formazan which is a blue-violet crystal, and precipitates in the cells, while the death cells could not reduce MTT. DMSO could dissolve Formazan in the cells. Absorbance value of the solution was determined at 490/570 nm by microplate reader, which could indirectly indicate the amount of the live cells. The amount of the crystal from MTT is proportional to the amount of the cells within a certain range of cell number. The supernate from the HUVEC or tumor cells in exponential phase was removed and the cells were washed by PBS once. 1 ml 0.25% trypsin (4° C.) was added for digestion at 37° C. for 2 min. Then the supernate was added for neutralization and the cells were dispersed to form a suspension and the suspension was centrifuged at 1000 rpm for 3 min. The supernate was removed and 5 ml culture mediums were added for resuspension. Cells were inoculated in a 48-well plate by 500 ul/well at the concentration of 3×10^4/ml and then incubated under 5% CO2, 37° C. for 24 hours. The supernate was removed and a culture medium containing polypeptide (Zn^2+ in the culture medium was present at the concentration of 17.39 μmol/L) was added for further incubation for 48 hours. Supernate in each well was carefully removed. The well was gently washed by PBS once in an amount of 450 μl/well. 450 μl MTT culture mediums were added into each well for further cultivation for 4 hours. The supernate was carefully discarded. DMSO was added in an amount of 450 μl/well and then the plate was placed in a shaking bed for oscillation for 10 min in dark. 150 μl supernates were transferred to a 96-well ELISA plate and absorbance value of each well was detected at 490 nm and 570 nm by the microplate reader.

The test system of assay [2] is tumor cell HepG2. In kind it is cell-based. The procedure: as §1

On to `CSCC[C@H](NC(=O)CNC(=O)CNC(=O)[C@H](CO)NC(=O)[C@H](CC(C)C)NC(=O)[C@H](CO)NC(=O)[C@H](CO)NC(=O)[C@H](CC(N)=O)NC(=O)[C@H](CC(C)C)NC(=O)[C@H](C)NC(=O)[C@@H](NC(=O)[C@H](CC(C)C)NC(=O)[C@H](Cc1c[nH]cn1)NC(=O)[C@H](CC(C)C)NC(=O)[C@@H](NC(=O)[C@@H]1CCCN1C(=O)[C@H](CCC(N)=O)NC(=O)[C@H](Cc1ccccc1)NC(=O)[C@H](CC(=O)O)NC(=O)[C@H](CCCNC(=N)N)NC(=O)[C@H](Cc1c[nH]cn1)NC(=O)[C@@H](NC(=O)[C@H](Cc1c[nH]cn1)NC(C)=O)[C@@H](C)O)C(C)C)C(C)C)C(=O)N[C@@H](CCCNC(=N)N)C(=O)NCC(N)=O` [Polypeptide P2T2S18-25] (Ac-HTHRDFQPVLHLVALNSSLSGGMRG-NH2), for which the “Cell Survival (%) at a polypeptide concentration of 120 μM” value (from here on “Cell Survival (%) … of 120 μM”) in assay [1] is listed as 31%.
For `CC[C@H](C)[C@H](NC(=O)CNC(=O)[C@H](CCCNC(=N)N)NC(=O)[C@H](CCSC)NC(=O)CNC(=O)CNC(=O)[C@H](CO)NC(=O)[C@H](CC(C)C)NC(=O)[C@H](CO)NC(=O)[C@H](CO)NC(=O)[C@H](CC(N)=O)NC(=O)[C@H](CC(C)C)NC(=O)[C@H](C)NC(=O)[C@@H](NC(=O)[C@H](CC(C)C)NC(=O)[C@H](Cc1c[nH]cn1)NC(=O)[C@H](CC(C)C)NC(=O)[C@@H](NC(=O)[C@@H]1CCCN1C(=O)[C@H](CCC(N)=O)NC(=O)[C@H](Cc1ccccc1)NC(=O)[C@H](CC(=O)O)NC(=O)[C@H](CCCNC(=N)N)NC(=O)[C@H](Cc1c[nH]cn1)NC(=O)[C@@H](NC(=O)[C@H](Cc1c[nH]cn1)NC(C)=O)[C@@H](C)O)C(C)C)C(C)C)C(=O)N[C@@H](CCCNC(=N)N)C(=O)NCC(=O)N[C@@H](C)C(=O)N[C@@H](CC(=O)O)C(=O)N[C@@H](Cc1ccccc1)C(=O)N[C@@H](CCC(N)=O)C(=O)N[C@@H](CS)C(=O)N[C@@H](Cc1ccccc1)C(=O)N[C@@H](CCC(N)=O)C(N)=O` [Polypeptide P2T2S18-35] (Ac-HTHRDFQPVLHLVALNSSLSGGMRGIRGADFQCFQ-NH2), the “Cell Survival (%) … of 120 μM” value in assay [1] was found to be 15%.
Regarding `CC[C@H](C)[C@H](NC(=O)CNC(=O)[C@H](CCCNC(=N)N)NC(=O)[C@H](CCSC)NC(=O)CNC(=O)CNC(=O)[C@H](CO)NC(=O)[C@H](CC(C)C)NC(=O)[C@@H]1CCCN1C(=O)[C@H](CO)NC(=O)[C@H](CC(N)=O)NC(=O)[C@H](CC(C)C)NC(=O)[C@H](C)NC(=O)[C@@H](NC(=O)[C@H](CC(C)C)NC(=O)[C@H](Cc1c[nH]cn1)NC(=O)[C@H](CC(C)C)NC(=O)[C@@H](NC(=O)[C@@H]1CCCN1C(=O)[C@H](CCC(N)=O)NC(=O)[C@H](Cc1ccccc1)NC(=O)[C@H](CC(=O)O)NC(=O)[C@H](CCCNC(=N)N)NC(=O)[C@H](Cc1c[nH]cn1)NC(=O)[C@@H](NC(=O)[C@H](Cc1c[nH]cn1)NC(C)=O)[C@@H](C)O)C(C)C)C(C)C)C(=O)N[C@@H](CCCNC(=N)N)C(=O)NCC(=O)N[C@@H](C)C(=O)N[C@@H](CC(=O)O)C(N)=O` [Polypeptide P2T2] (Ac-HTHRDFQPVLHLVALNSPLSGGMRGIRGAD-NH2), in assay [1], the “IC50 (ug/ml) HUVEC” value is 1506.1 µg/mL (≈ 457 µM) and the “biological activity compared with P2” value is “lower biological activity than P2”. Besides, the “Cell Survival (%), 1 mg/ml of polypeptide, HUVEC” value in assay [1] (1 mg/ml) turned out to be 46%. Further, the “IC50 (ug/ml) HepG2” value in assay [2] amounted to 2169.6 µg/mL (≈ 659 µM). Also, the “Cell Survival (%), 1 mg/ml of polypeptide, HepG2” value in assay [2] (1) is given as 55%.
As to `CC(=O)N[C@@H](Cc1c[nH]cn1)C(=O)N[C@H](C(=O)N[C@@H](Cc1c[nH]cn1)C(=O)N[C@@H](CCCNC(=N)N)C(=O)N[C@@H](CC(=O)O)C(=O)N[C@@H](Cc1ccccc1)C(=O)N[C@@H](CCC(N)=O)C(=O)N1CCC[C@H]1C(=O)N[C@H](C(=O)N[C@@H](CC(C)C)C(=O)N[C@@H](Cc1c[nH]cn1)C(=O)N[C@@H](CC(C)C)C(=O)N[C@H](C(=O)N[C@@H](C)C(=O)N[C@@H](CC(C)C)C(N)=O)C(C)C)C(C)C)[C@@H](C)O` [Polypeptide P2T2-15, Ac-HTHRDFQPVLHLVAL-NH2] (Ac-HTHRDFQPVLHLVAL-NH2), the “Cell Survival (%) … of 120 μM” value in assay [1] came out at 95%.
Still for that read-out and setting: with “Ac-HTHRDFQPVLHLVALNSSLSGGMRGIRGADFQCFQQARAVGLAGT-NH2 [Polypeptide P2T2S18-45]” the figure was 80%; with `CC(=O)N[C@@H](Cc1c[nH]cn1)C(=O)N[C@H](C(=O)N[C@@H](Cc1c[nH]cn1)C(=O)N[C@@H](CCCNC(=N)N)C(=O)N[C@@H](CC(=O)O)C(=O)N[C@@H](Cc1ccccc1)C(=O)N[C@@H](CCC(N)=O)C(=O)N1CCC[C@H]1C(=O)N[C@H](C(=O)N[C@@H](CC(C)C)C(=O)N[C@@H](Cc1c[nH]cn1)C(=O)N[C@@H](CC(C)C)C(=O)N[C@H](C(=O)N[C@@H](C)C(=O)N[C@@H](CC(C)C)C(=O)N[C@@H](CC(N)=O)C(=O)N[C@@H](CO)C(=O)N[C@@H](CO)C(=O)N[C@@H](CC(C)C)C(=O)N[C@@H](CO)C(N)=O)C(C)C)C(C)C)[C@@H](C)O` [Polypeptide P2T2S18-20] (Ac-HTHRDFQPVLHLVALNSSLS-NH2), 52%; with `CC[C@H](C)[C@H](NC(=O)CNC(=O)[C@H](CCCNC(=N)N)NC(=O)[C@H](CCSC)NC(=O)CNC(=O)CNC(=O)[C@H](CO)NC(=O)[C@H](CC(C)C)NC(=O)[C@H](CO)NC(=O)[C@H](CO)NC(=O)[C@H](CC(N)=O)NC(=O)[C@H](CC(C)C)NC(=O)[C@H](C)NC(=O)[C@@H](NC(=O)[C@H](CC(C)C)NC(=O)[C@H](Cc1c[nH]cn1)NC(=O)[C@H](CC(C)C)NC(=O)[C@@H](NC(=O)[C@@H]1CCCN1C(=O)[C@H](CCC(N)=O)NC(=O)[C@H](Cc1ccccc1)NC(=O)[C@H](CC(=O)O)NC(=O)[C@H](CCCNC(=N)N)NC(=O)[C@H](Cc1c[nH]cn1)NC(=O)[C@@H](NC(=O)[C@H](Cc1c[nH]cn1)NC(C)=O)[C@@H](C)O)C(C)C)C(C)C)C(=O)N[C@@H](CCCNC(=N)N)C(=O)NCC(=O)N[C@@H](C)C(=O)N[C@@H](CC(=O)O)C(=O)N[C@@H](Cc1ccccc1)C(=O)N[C@@H](CCC(N)=O)C(=O)N[C@@H](CS)C(=O)N[C@@H](Cc1ccccc1)C(=O)N[C@@H](CCC(N)=O)C(=O)N[C@@H](CCC(N)=O)C(=O)N[C@@H](C)C(=O)N[C@@H](CCCNC(=N)N)C(=O)N[C@@H](C)C(=O)N[C@H](C(N)=O)C(C)C` [Polypeptide P2T2S18-40] (Ac-HTHRDFQPVLHLVALNSSLSGGMRGIRGADFQCFQQARAV-NH2), 49%.
As to “Ac-HTHRDFQPVLHLVALNSSLSGGMRGIRGA-NH2 [Polypeptide P2T2S18-29]”, in assay [1], the “biological activity compared with P2” value is given as “siginficalty higher than P2”.
